Measured values: US10570117B2, “Phenylimidazole compound” (Otsuka Pharmaceutical Factory, Inc., priority 2015, dated 2020)
Converted amounts (≈) assume the structure as drawn. Where two headings read alike, the source gives them in different places.

Columns and labels:
[1] = tested on: lipoprotein lipase (LPL) gene; test: LPL mRNA elevating action (RT-PCR quantification of LPL mRNA in C2Cl2 cells); assay type: cell-based, mouse; details: compound 10 μM, ratio relative to the amount of LPL mRNA in cells with DMSO only; for fold induction at 10 µM: Mus musculus, 24 h, read-out: Rate of increase in LPL mRNA
Experimental: LPL mRNA Elevating Action
C2Cl2 cells (cell strain derived from striated muscle of mouse) were seeded in 96-well plates using a DMEM medium (Gibco) (containing 2 mM L-glutamine and 10% fetal bovine serum). After the cells were grown, the medium was removed. Subsequently, media obtained by adding dimethyl sulfoxide (DMSO) solutions of the compounds to the same medium as described above to a concentration of 10 μM were individually added to the cells and allowed to stand for 24 hours. The compound-containing media were removed, and the plates were washed with phosphate buffered saline. Thereafter, the remaining cells were lysed and subjected to a reverse transcription polymerase chain reaction (RT-PCR reaction) to obtain cDNA. Primers specific to lipoprotein lipase (LPL) gene, a necessary enzyme, etc., were added to the obtained cDNA. The mixture was set in 7500 Fast Real Time PCR System produced by Applied Biosystem to perform a PCR reaction (20 cycles) and the amount of LPL mRNA amplified was quantified. The LPL mRNA elevating action of each compound in the test cells was indicated as the ratio relative to the amount of LPL mRNA in cells allowed to stand in a medium to which only DMSO was added, with the amount being defined as 1.
As Comparative Example 1, a test was performed in the same manner as above, using a compound disclosed as the compound of Example 57 in WO2010/090200.

[2] = Solubility in gastric juice or intestinal juice model fluid (precipitation method using DMSO); assay type: physicochemical; details: room temperature
In short: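 Compound in DMSO added to JP disintegration test fluid 1 (pH 1.2) or fluid 2 (pH 6.8) and shaken 24 h at room temperature. After filtration, dissolved concentration (μg/mL) determined by UV absorbance against compound calibration curves.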

[3] = pH 1.2, simulated gastric fluid, kinetic from dmso stock, 1st fluid for Disintegration Test of Japanese Pharmacopoeia (pH: 1.2), read-out: Solubility (μg/mL) 1st fluid
[4] = pH 6.8, kinetic from dmso stock, 2nd fluid for Disintegration Test of Japanese Pharmacopoeia (pH: 6.8), read-out: Solubility (μg/mL) 2nd fluid

| melting point | solubility at 24 h [2, 3] [µg/mL] | solubility at 24 h [2, 4] [µg/mL] | SMILES | fold induction at 10 µM [1] | other results |
| --- | --- | --- | --- | --- | --- |
| 186 to 199 °C | – | – | COc1cc(OCc2cncc(C(F)(F)F)c2)ccc1-c1[nH]c(-c2ccc(Cl)nc2)nc1Br [Example 252] | 2.58 | – |
| 197 to 199 °C | – | – | COc1cc(OCc2cnc(Cl)cn2)ccc1-c1c[nH]c(-c2ccc(F)nc2)n1 [Example 123] | 3.22 | – |
| 158 to 161 °C | – | – | COc1cc(OCc2ccc(Br)cc2F)ccc1-c1[nH]c(-c2ccc(F)nc2)nc1Br [Example 260] | 2.95 | – |
| 236 to 239 °C | – | – | COc1cc(OCc2ccnc(C(F)(F)F)c2)ccc1-c1[nH]c(-c2ccc(Cl)nc2)nc1Cl [Example 242] | 2.38 | – |
| 165 to 167 °C | – | – | COc1cc(OCc2ccc(Cl)cc2F)ccc1-c1[nH]c(-c2ccc(F)nc2)nc1Br [Example 259] | 2.93 | – |
| 222 to 224 °C | – | – | COc1cc(OCc2cccc(C(F)(F)F)n2)ccc1-c1c[nH]c(-c2ccc(Cl)nc2)n1 [Example 36] | 2.4 | – |
| 171 to 173 °C (dec.) | – | – | COc1cc(-c2c[nH]c(-c3ccc(Cl)nc3)n2)cc(OC)c1OCc1ccc(C(F)(F)F)cn1 [Example 71] | 2.37 | – |
| 163 to 166 °C | – | – | COc1cc(OCc2ccc(C(F)(F)F)cc2)ccc1-c1[nH]c(-c2ccc(F)nc2)nc1Cl [Example 176] | 2.83 | – |
| 223 to 225 °C (dec.) | – | – | COc1cc(OCc2ccnc(C(F)(F)F)c2)ccc1-c1[nH]c(-c2ccc(F)nc2)nc1Br [Example 271] | 3.39 | – |
| 180 to 182 °C | – | – | COc1cc(OCc2ccc(C(F)(F)F)cn2)ccc1-c1nc(-c2ccc(Cl)nc2)[nH]c1Cl [Example 235] | 2.78 | – |
| 156 to 158 °C | – | – | COc1cc(OCc2ncc(Cl)cc2C(F)(F)F)ccc1-c1[nH]c(-c2ccc(F)nc2)nc1Cl [Example 280] | 2.91 | – |
| 172 to 176 °C | – | – | COc1cc(OCc2ncc(Cl)cc2F)ccc1-c1[nH]c(-c2ccc(Cl)nc2)nc1Br [Example 248] | 2.36 | – |
| 164 to 166 °C | – | – | COc1cc(OCc2ccc(F)cc2F)ccc1-c1[nH]c(-c2ccc(F)nc2)nc1Br [Example 258] | 2.91 | – |
| – | > 99 | < 0.4 | COc1c(OCc2ccc(C(F)(F)F)nc2)ccc(-c2cnc(C3CCC(F)(F)CC3)[nH]2)c1OC [Example 14] | 5.42 | – |
| – | 96 (≈ 171 µM) | 1.8 (≈ 3.2 µM) | CCCCOC(C)n1cc(-c2ccc(OCc3ncc(C(F)(F)F)cc3F)cc2OC)nc1-c1ccc(F)nc1 (centres unmarked) [Example 389] | 1.63 | – |
| 198 to 201 °C | – | – | COc1cc(OCc2cncc(C(F)(F)F)c2)ccc1-c1[nH]c(-c2ccc(Cl)nc2)nc1Cl [Example 241] | 2.45 | – |
| – | 73 (≈ 137 µM) | 2.3 (≈ 4.32 µM) | COc1cc(OCc2ccc(C(F)(F)F)cn2)ccc1-c1c(Cl)nc(-c2ccc(F)nc2)n1CC1CC1 [Example 296] | 3.48 | – |
| 195 to 197 °C (dec.) | – | – | COc1cc(OCc2ccc(C(F)(F)F)nc2)ccc1-c1nc(-c2ccc(F)nc2)[nH]c1Br [Example 224, 5-[(4-(4-bromo-2-(6-fluoropyridin-3-yl)-1H-imidazol-5-yl)-3-methoxyphenoxy)methyl]-2-(trifluoromethyl)pyridine] | 2.29 | – |
| 176 to 177 °C | – | – | COc1cc(OCc2ccc(C(F)(F)F)nc2)ccc1-c1nc(-c2ccc(F)nc2)[nH]c1Cl [Example 227] | 5.08 | – |
| 186 to 189 °C | – | – | COc1cc(OCc2ccc(C(F)(F)F)nc2)ccc1-c1c[nH]c(-c2ccc(Cl)cn2)n1 [Example 32] | 2.58 | – |
| 219 to 221 °C | – | – | COc1cc(OCc2cnc(Cl)cn2)ccc1-c1c[nH]c(-c2ccc(Cl)nc2)n1 [Example 20] | 2.78 | – |

| melting point | solubility at 24 h [2, 3] [µg/mL] | solubility at 24 h [2, 4] [µg/mL] | SMILES | fold induction at 10 µM [1] | other results |
| --- | --- | --- | --- | --- | --- |
| – | 79.2 (≈ 182 µM) | 24.7 (≈ 56.7 µM) | COc1cc(-c2cnc(C3CCCC3)[nH]2)ccc1OCc1ncc(C(F)(F)F)cc1F [Example 366] | 1.95 | – |
| 196 to 203 °C | – | – | COc1cc(OCc2ncc(Cl)cc2Br)ccc1-c1[nH]c(-c2ccc(F)nc2)nc1Br [Example 264] | 2.99 | – |
| – | 60.8 (≈ 128 µM) | < 0.3 | COc1cc(-c2cnc(-c3ccc(F)nc3)[nH]2)ccc1OC(C)c1ncc(C(F)(F)F)cc1F (centres unmarked) [Example 392] | 1.73 | – |
| – | 75.2 (≈ 185 µM) | 79.4 (≈ 195 µM) | COc1cc(-c2cnc(C3CC3)[nH]2)ccc1OCc1ncc(C(F)(F)F)cc1F [Example 376] | 1.18 | – |
| – | 84 (≈ 199 µM) | 42.9 (≈ 102 µM) | COc1cc(OCc2ncc(C(F)(F)F)cc2F)ccc1-c1cnc(C2CCC2)[nH]1 [Example 371] | 3.57 | – |
| 148 to 170 °C | – | – | COc1cc(OCc2ncc(C(F)(F)F)cc2Br)ccc1-c1[nH]c(-c2ccc(F)nc2)nc1Br [Example 254] | 2.71 | – |
| 176 to 180 °C | – | – | COc1cc(OCc2ncc(Cl)cc2Br)ccc1-c1cnc(-c2ccc(F)nc2)[nH]1 [Example 134] | 2.85 | – |
| 193 to 195 °C | – | – | COc1cc(OCc2ncccc2C#N)ccc1-c1c[nH]c(-c2ccc(Cl)nc2)n1 [Example 33] | 2.92 | – |
| 176 to 179 °C | – | – | COc1cc(OCc2cccnc2C(F)(F)F)ccc1-c1[nH]c(-c2ccc(F)nc2)nc1Br [Example 278] | 2.95 | – |
| – | 80.4 (≈ 191 µM) | 33.5 (≈ 79.5 µM) | COc1cc(-c2cnc(C3CCC3)[nH]2)ccc1OCc1ncc(C(F)(F)F)cc1F [Example 372] | 1.95 | – |
| – | 1.1 (≈ 2.37 µM) | 7.1 (≈ 15.3 µM) | COc1cc(-c2cnc(CCC(F)(F)F)[nH]2)ccc1OCc1ncc(C(F)(F)F)cc1F [Example 391] | 1.58 | – |
| 205 to 208 °C | – | – | COc1cc(OCc2ccc(C(F)(F)F)nc2)ccc1-c1nc(-c2ccc(Cl)nc2)[nH]c1Cl [Example 229] | 2.62 | – |
| – | 20.2 (≈ 43.7 µM) | 0.8 (≈ 1.73 µM) | COc1cc(-c2cnc(-c3ccc(F)nc3)[nH]2)ccc1OCc1ncc(C(F)(F)F)cc1F [Example 324] | 1.95 | – |
| 222 to 227 °C | – | – | Fc1ccc(-c2nc(F)c(-c3ccc(OCc4ncc(C(F)(F)F)cc4F)cc3)[nH]2)cn1 [Example 356] | 2.06 | – |
| – | 37 (≈ 75.1 µM) | 2.9 (≈ 5.89 µM) | COc1cc(OCc2ncc(C(F)(F)F)cc2F)ccc1-c1[nH]c(-c2ccc(F)nc2)nc1CO [Example 413, [5-(4-((3-fluoro-5-(trifluoromethyl)pyridin-2-yl)methoxy)-2-methoxyphenyl)-2-(6-fluoropyridin-3-yl)-1H-imidazol-4-yl]methanol] | 2.06 | – |
| – | 9.4 (≈ 19.9 µM) | 1.2 (≈ 2.54 µM) | COc1cc(OCc2ncc(Br)cc2F)ccc1-c1cnc(-c2ccc(F)nc2)[nH]1 [Example 111, 5-bromo-3-fluoro-2-[[4-(2-(6-fluoropyridin-3-yl)-1H-imidazol-5-yl)-3-methoxyphenoxy]methyl]pyridine] | 2.46 | – |
| – | 94.9 (≈ 195 µM) | 4 (≈ 8.21 µM) | COc1cc(OC(C)c2ncc(Br)cc2F)ccc1-c1cnc(-c2ccc(F)nc2)[nH]1 (centres unmarked) [Example 128] | 2.28 | – |
| – | – | – | COc1cc(-c2[nH]c(C3CCCC(F)(F)C3)nc2Br)ccc1OCc1ccc(C(F)(F)F)cn1 (centres unmarked) [Example 171] | – | Solubility (μg/mL) 1st fluid ([2]; 1st fluid for Disintegration Test of Japanese Pharmacopoeia (pH: 1.2), 24 hours): >109 µg/mL; Solubility (μg/mL) 2nd fluid ([2]; 2nd fluid for Disintegration Test of Japanese Pharmacopoeia (pH: 6.8), 24 hours): <1.9 µg/mL; Rate of increase in LPL mRNA ([1]; 24 hours): 2.89 |
| – | 104 (≈ 197 µM) | 3.6 (≈ 6.81 µM) | COc1cc(OCc2ccc(C(F)(F)F)cn2)ccc1-c1nc(-c2ccc(Cl)nc2)n(CC2CC2)c1C [Example 156] | 3.27 | – |
| – | 7.5 (≈ 17 µM) | < 1.6 | COc1cc(OCc2cnc(C)cn2)ccc1-c1nc(-c2ccc(Cl)nc2)[nH]c1Cl [Example 219] | 2.42 | – |
| – | 93.8 (≈ 199 µM) | 8.1 (≈ 17.2 µM) | COc1cc(OCc2ncc(C(F)(F)F)cc2F)ccc1-c1cnc(C2CCC(F)(F)C2)[nH]1 (centres unmarked) [Example 340] | 2.26 | – |
